Consider 59 compounds from the METLIN SMRT retention time set (Domingo-Almenara et al. 2019).

The data set in a line: gradient 5% acetonitrile 3 min, to 50% in 2 min, to 85% in 15 min, held 3 min, 100 µL/min. The settings on record: column: Zorbax Extend-C18 2.1 x 50 mm; eluents: water / acetonitrile, 0.1% formic acid. In outline: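 Mixtures of ~100 pure standards were chromatographed on a Zorbax Extend-C18 column (2.1 × 50 mm, 1.8 μm) at 100 μL/min using water and acetonitrile, each with 0.1% formic acid. Detection used a quadrupole time-of-flight mass spectrometer in positive and negative ionization mode, and data collection spanned 3 months. Retention time was obtained from adduct peaks picked computationally and each checked manually.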
The compound `O=C(CN1C(=O)C2CCCCN2C(=O)c2ccccc21)NCCN1CCCCCC1` (centres undefined) gave an RP-LC retention time of 590 s.

The compound `CCCCCCC(=O)Nc1nc(-c2ccc(C)cc2)cs1` showed an RP-LC retention time of 1190 s.

`O=C(NCc1ccccc1)C1CC(=O)N(c2ccc3c(c2)CCN3C(=O)C2CCC2)C1` (centres undefined): the RP-LC retention time came to 769 s.

Consider `Cc1nn2c(CNS(=O)(=O)c3cc(F)cc(F)c3)c(-c3ccccc3)nc2s1`, for which the RP-LC retention time came out at 905 s.

Turning to `CC(O)C1CCN(Cc2ccc(Br)o2)CC1` (centres undefined), the RP-LC retention time amounted to 566 s.

Regarding `CCOC(=O)C1=C(CN2CC=C(c3ccccc3)CC2)NC(=O)NC1c1cccc(OC)c1OC` (centres undefined), the RP-LC retention time worked out at 704 s.

On to `Cc1ccc(C)c2sc(OC3CCN(C(=O)c4ccc(=O)n(C)n4)CC3)nc12`, for which the RP-LC retention time stood at 911 s.

The compound `CCOC(=O)c1noc2nc(C)nc(N3CCN(c4ccc(F)cc4)CC3)c12` displayed an RP-LC retention time of 1070 s.

As for `CN1CCN(S(=O)(=O)c2ccc(Cl)c(-c3nnc(-c4ccccc4)o3)c2)CC1`, the RP-LC retention time is 681 s.

For `CCOc1cc(=O)n2c(c1C(=O)NC1CCc3ccccc31)CCCCC2` (centres undefined), the RP-LC retention time is 766 s.

Compound `CCc1cccc(NC(=O)C2(C)Oc3cccnc3NC2=O)c1` (centres undefined) had an RP-LC retention time of 704 s.

As for `Cc1cc(=O)c2cc(C(=O)Nc3nc4ccccc4s3)ccc2[nH]1`, the RP-LC retention time worked out at 702 s.

`COc1ccc(CCc2nc3nccc(-c4cc(OC)c(OC)c(OC)c4)n3n2)cc1` came in with an RP-LC retention time of 895 s.

Turning to `CCc1ccc(C2=NN(CCC(=O)NC(C)c3ccc4c(c3)OCCO4)C(=O)CC2)cc1` (centres undefined), the RP-LC retention time was found to be 832 s.

Regarding `Cc1ncc(-c2ccnc(Nc3ccc(S(C)(=O)=O)cc3)n2)n1C(C)C`, the RP-LC retention time was determined as 636 s.

`O=C(NCCc1c[nH]c2ccc(Cl)cc12)c1sc2ncccc2c1-n1cccc1` yielded an RP-LC retention time of 1060 s.

In turn, `O=C(Cc1csc2nc(-c3ccccc3)cn12)Nc1ccc(Br)cc1F` registered an RP-LC retention time of 883 s.

In the case of `Cc1ccc(C)c2c(=O)c3c([nH]c12)CCN(CC(=O)Nc1ccccc1)C3`, the RP-LC retention time is 627 s.

As for `CC(C)(C)OC(=O)COC(=O)c1cn(-c2cccc(F)c2)c(=O)c2ccccc12`, the RP-LC retention time amounted to 1160 s.

Turning to `Cc1ccc(F)cc1NC(=O)c1c(O)c2cccnc2n(-c2ccc(F)cc2)c1=O`, the RP-LC retention time was found to be 1290 s.

For `CCOCCCNC(=O)N1CCC(c2noc(-c3cnccn3)n2)C1` (centres undefined), the RP-LC retention time came out at 614 s.

As for `Cc1ccc(S(=O)(=O)N2CC3CN(C(=O)c4cccn4C)CC(C2)O3)cc1`, the RP-LC retention time amounted to 807 s.

Compound `Cn1cc(-c2cc3n(n2)CCC(=O)N3CC(=O)NCc2ccccn2)c2ccccc21` had an RP-LC retention time of 626 s.

As to `CN1C(=O)C(CC(=O)N2CCCCC2)=C2CCCCC21` (centres undefined), the RP-LC retention time worked out at 677 s.

Turning to `Cc1cc(NC(=O)C2CCCN2S(=O)(=O)c2ccc(Cl)s2)n(C(C)C)n1` (centres undefined), the RP-LC retention time is 776 s.

Consider `Cc1ccc(-c2nnc(-c3cccc(S(=O)(=O)NC(C)(C)CO)c3)o2)cc1`, for which the RP-LC retention time stood at 955 s.

Compound `O=C(Nc1ccc2nccnc2c1)c1csc2c1CCCC2` gave an RP-LC retention time of 804 s.

`COc1cccc(C(c2sc3ncnn3c2O)N2CCN(C(=O)c3ccco3)CC2)c1` (centres undefined) yielded an RP-LC retention time of 642 s.

Compound `CCOc1ccc(C(O)CN2CCN(c3ccccc3)CC2)cc1` (centres undefined) came in with an RP-LC retention time of 653 s.

For the compound `Cc1ccc(-c2cc(C(=O)N(C)Cc3ccccc3)c(C)[nH]2)cc1C`, the RP-LC retention time came out at 1040 s.

In the case of `CCCNC(=O)C1Cc2cc(S(=O)(=O)N3CCCCCC3)ccc2N1C(C)=O` (centres undefined), the RP-LC retention time is 744 s.

In the case of `CCCCN1C(=O)CN(C2CCCCC2)C(=O)C1c1ccc(OC)c(OC)c1` (centres undefined), the RP-LC retention time came out at 877 s.

The compound `O=C(c1cccc(Br)c1)N1CCC2(C1)C(=O)Nc1ccccc12` (centres undefined) showed an RP-LC retention time of 773 s.

With `CCC(=O)N1CCN(c2nc(CC(C)C)c3c(c2C#N)CC(C)(C)OC3)CC1`, the RP-LC retention time came to 1110 s.

Compound `O=C(NC1CC1)C1CCN(c2nc3ccc(-c4cccs4)nc3s2)CC1` had an RP-LC retention time of 809 s.

`Cc1noc(C)c1CC(=O)N1CCCn2cc(-c3ccccc3F)nc21`: the RP-LC retention time worked out at 710 s.

The compound `O=C([C@H]1C[C@@H](F)CN1S(=O)(=O)c1ccc(C(F)(F)F)cc1)N1CCOCC1` returned an RP-LC retention time of 738 s.

Consider `CC(=O)N1CCc2cc(N3CC(C(=O)Nc4ccc(C)cc4C)CC3=O)ccc21` (centres undefined), for which the RP-LC retention time was 786 s.

Compound `CC(NC(=O)C1CCN(c2cncnc2N2CCCCC2)CC1)c1ccc(F)cc1` (centres undefined) showed an RP-LC retention time of 715 s.

In the case of `CCc1c(C2CCN(C(=O)Nc3ccc(C)c(C)c3)CC2)noc1N`, the RP-LC retention time worked out at 793 s.

`O=C1CCN(S(=O)(=O)c2ccccc2)CCCN(C(=O)C2(c3ccccc3)CC2)CCN1` registered an RP-LC retention time of 758 s.

Consider `O=C(NC1CCCC1)c1cc2n(n1)CCCN(Cc1ccc(Cl)cc1)C2=O`, for which the RP-LC retention time was 890 s.

`O=C(NCc1cc(F)cc(F)c1)c1cn(-c2ccc(NC(=O)C3CC3)cn2)cn1` returned an RP-LC retention time of 763 s.

`O=C1NC2(CCN(C(=O)Cc3ccccc3)CC2)Nc2c(Cl)cccc21` showed an RP-LC retention time of 756 s.

`COCCN1C(=O)CCc2cc(NS(=O)(=O)c3cccc(F)c3)ccc21` yielded an RP-LC retention time of 748 s.

As to `NC(=O)CCC(C(=O)O)N1C(=O)C2C3CCC(C3)C2C1=O` (centres undefined), the RP-LC retention time amounted to 638 s.

As to `CC(C)(C)c1csc(-c2csc(S(=O)(=O)NCc3ccc(F)cc3F)c2)n1`, the RP-LC retention time is 1220 s.

The compound `O=[N+]([O-])c1cccc(-c2nnc3c4cnn(-c5ccc(F)cc5)c4ncn23)c1` yielded an RP-LC retention time of 1080 s.

Take `Cc1[nH]ncc1CNC(=O)c1ccc2nc(Cc3ccccc3F)oc2c1`: the RP-LC retention time is 689 s.

The compound `Cc1ccc(N2CC(c3nc(-c4ccc5c(c4)nnn5C)no3)CC2=O)cc1C` (centres undefined) yielded an RP-LC retention time of 880 s.

As to `COc1ccc(CCC(=O)NC(C)C(=O)N2CCN(c3ccccn3)CC2)cc1` (centres undefined), the RP-LC retention time came to 606 s.

The compound `Cc1ccc2c(NCc3ccc(Cl)cc3)c(-c3nc(C)no3)cnc2n1` returned an RP-LC retention time of 727 s.

For `Cc1ccc2c(c1)NC(=O)c1cc(NC(=O)c3ccccc3Br)ccc1O2`, the RP-LC retention time is 846 s.

On to `O=C(Cn1ccn2nc(-c3ccccc3)c(CO)c2c1=O)NCCC1=CCCCC1`, for which the RP-LC retention time amounted to 857 s.

Take `Cc1ccn2cc(CC(=O)Nc3ccc(F)cc3)nc2c1`: the RP-LC retention time turned out to be 595 s.

Regarding `CSc1cccc(NC(=O)Cn2cnc3c(sc4nc(-c5ccccc5)ccc43)c2=O)c1`, the RP-LC retention time amounted to 1040 s.

On to `COc1ccc2oc(-c3csc(NC(=O)c4ccc(N5C(=O)CCC5=O)cc4)n3)cc2c1`, for which the RP-LC retention time amounted to 884 s.

`CC1(C)CC(=O)c2cn(-c3ccccc3)c(=O)c(C(=O)NCC3CCCO3)c2C1` (centres undefined) came in with an RP-LC retention time of 738 s.

Consider `Cc1ccc(N2CC(c3nc(-c4ccncc4)no3)CC2=O)cc1Cl` (centres undefined), for which the RP-LC retention time was 845 s.
